Assay results taken from US11028127B2, “Peptides capable of reactivating p53 mutants” (Yeda Research and Development Co. Ltd., priority 2013, dated 2021).

Test system: Mut-p53
Test: Total activity score over combined assays (Table 8)
Parameters: scale not given here
Conditions: for Activity Score: Table 10 summary of activity of the peptides tested; for AS (Activity Score): total score of Table 7
Description: Several alternative and complementary methods to screen lead peptide candidates for conformational and functional effects on Mut-p53 were employed. For increased penetration of peptide across cell membranes each peptide contains 3-6 Arginine residues either as part of its sequence or added either at its N-terminus or its C-terminus. […] In-vitro based assays for evaluation were first performed, such as ELISA for assessment of p53 conformation and sequence-specific DNA binding of p53.

Row | Substance | Activity Score | AS (Activity Score)
1 | pCAP1 (EVTFRHSVV) | 32 | 32
2 | pCAP2 (VWVHDSCHANLQNYRNYLLP) | 2 | 2
3 | pCAP3 (FWTQSIKERKMLNEHDFEVR) | 12 | 12
4 | pCAP4 (EHDFEVRGDVVNGRNHQGPK) | 2 | 2
5 | pCAP5 (LEVIYMI) | 2 | 2
6 | pCAP6 (LGIDEDEETETAPE) | 5 | 5
7 | pCAP7 (SPLQTPAAPGAAAGPALSPV) | 6 | 6
8 | pCAP9 (TIIHREDEDEIEW) | 17 | 17
9 | pCAP10 (VAEFAQSIQSRIVEWKERLD) | 8 | 8
10 | pCAP11 (EWKERLDKEFSLSVYQKMKF) | 16 | 16
11 | pCAP12 (GGGGGGGGGGGG) | 0 | 0
12 | pCAP13 (HFSHHLK) | 4 | 4
13 | pCAP14 (HHFSHHWKT) | 9 | 9
14 | pCAP15 (THFSHHLKH) | 12 | 12
15 | pCAP16 (LPNPPERHH) | 24 | 24
16 | pCAP17 (LHSKTLVL) | 23 | 23
17 | pCAP18 (SHQVHTHHNN) | 6 | 6
18 | pCAP19 (NPNTYVPHWMRQ) | 0 | 0
19 | pCAP20 (HHPWTHHQRWS) | 13 | 13
20 | pCAP21 (NHPWQFPNRWTV) | 29 | 29
21 | pCAP22 (SLLIGFGIIRSR) | 5 | 5
22 | pCAP23 (IRILMFLIGCGR) | 22 | 22

Row | Substance | Activity Score | AS (Activity Score)
23 | pCAP24 (LRCLLLLIGRVG) | 23 | 23
24 | pCAP25 (YRRLLIGMMW) | 0 | 0
25 | pCAP26 (DEFHSFYTARQTG) | 0 | 0
26 | pCAP27 (VHEVTHHWL) | 5 | 5
27 | pCAP28 (HTDSHPHHHHPH) | 24 | 24
28 | pCAP29 (KPDSPRV) | 0 | 0
29 | pCAP30 (TIHPSIS) | 16 | 16
30 | pCAP31 (PPYSQFLQWYLS) | 0 | 0
31 | pCAP32 (TSPLQSLK) | 4 | 4
32 | pCAP33 (SILTLRLRRLRR) | 16 | 16
33 | pCAP34 (SILTLSRIVLGWW) | 14 | 14
34 | pCAP35 (GAMHLPWHMGTL) | 28 | 28
35 | pCAP36 (YPTQGHLR) | 39 | 39
36 | pCAP37 (KLQVPIK) | 6 | 6
37 | pCAP38 (WTLSNYL) | 2 | 2
38 | pCAP39 (DSLHSTY) | 2 | 2
39 | pCAP41 (WHHRQQIPRPLE) | 2 | 2
40 | pCAP42 (MHPPDWYHHTPKH) | 29 | 29
41 | pCAP43 (TDSHSHH) | 15 | 15
42 | pCAP44 (VPHIHEFT) | 16 | 16
43 | pCAP45 (HDTHNAHVG) | 0 | 0
44 | pCAP46 (ASWQALALYAAGW) | 34 | 34

Row | Substance | Activity Score | AS (Activity Score)
45 | pCAP47 (TLYLPHWHRH) | 14 | 14
46 | pCAP48 (IPMNFTSHSLRQ) | 13 | 13
47 | pCAP49 (TRILCIVMM) | 8 | 8
48 | pCAP50 (WSEYDIPTPQIPP) | 0 | 0
49 | pCAP51 (AILTLILRRVIWP) | 4 | 4
50 | pCAP52 (SPYPIRT) | 3 | 3
51 | pCAP53 (ILVIIQRIM) | 3 | 3
52 | pCAP54 (IRGRIIR) | 26 | 26
53 | pCAP55 (FLLPEPDENTRW) | 8 | 8
54 | pCAP56 (ATPFHQT) | 5 | 5
55 | pCAP57 (LMSNAQY) | 8 | 8
56 | pCAP58 (SILPLFLIRRSG) | 5 | 5
57 | pCAP59 (FLIRRSG) | 9 | 9
58 | pCAP60 (SFILFIRRGRLG) | 40 | 40
59 | pCAP61 (KDLPFYSHLSRQ) | 17 | 17
60 | pCAP62 (YELPHHAYPA) | 10 | 10
61 | pCAP63 (HNHHHSQHTPQH) | 9 | 9
62 | pCAP64 (APSIFTPHAWRQ) | 2 | 2
63 | pCAP65 (THFSHHLKHRRRRRRRRRR) | 17 | 17
64 | pCAP66 (THFSHHLKGGGRRQRRRP) | 2 | 2
65 | pCAP67 (LHSKTLVLGGGRRRRGDR) | 2 | 2
66 | pCAP68 (YRRLLIGMMWRRRRRRRRRRR) | 39 | 39

Row | Substance | Activity Score | AS (Activity Score)
67 | pCAP69 (SILTLSRRRRRRRRRR) | 0 | 0
68 | pCAP70 (SILTLSRGRKKRRQRRRR) | 33 | 33
69 | pCAP71 (WTLSNYLGGRKKRRQRRRR) | 2 | 2
70 | pCAP72 (SCRCRLRRRRRRRRRR) | 5 | 5
71 | pCAP73 (SCRCRLRGDRGDR) | 0 | 0
72 | pCAP74 (IRGRIIRRKKRRQRRRRGDR) | 6 | 6
73 | pCAP75 (TRILCIVRKKRRQRRRRGDR) | 32 | 32
74 | pCAP76 (GGGGGGGGGRRRRRRR) | 0 | 0
75 | pCAP77 (SEYLCSSLDAAG) | 0 | 0
76 | pCAP78 (GESFVQHVFRQN) | 0 | 0
77 | pCAP79 (SVHHHHRMHLVA) | 0 | 0
78 | pCAP80 (HLHKHHYKDSRM) | 9 | 9
79 | pCAP81 (VRCIFRGIWVRL) | 2 | 2
80 | pCAP82 (QIPHRSSTALQL) | 6 | 6
81 | pCAP83 (HSSHHHPVHSWN) | 25 | 25
82 | pCAP84 (GRRRFCM) | 0 | 0
83 | pCAP85 (KLTIHHH) | 0 | 0
84 | pCAP86 (FGSHHEL) | 0 | 0
85 | pCAP87 (HANLHHT) | 37 | 37
86 | pCAP88 (SYQTMQP) | 6 | 6
87 | pCAP89 (SILTLSCRCRLRLWR) | 8 | 8
88 | pCAP90 (SCRCRLR) | 12 | 12

Row | Substance | Activity Score | AS (Activity Score)
89 | pCAP91 (STTHIHA) | 7 | 7
90 | pCAP92 (FPHLVSSLTT) | 7 | 7
91 | pCAP93 (ATQHHYIK) | 17 | 17
92 | pCAP94 (LRFIDYP) | 4 | 4
93 | pCAP95 (HQIHRNHTY) | 8 | 8
94 | pCAP96 (GTVDHHA) | 0 | 0
95 | pCAP97 (WNHHHSTPHPAH) | 47 | 47
96 | pCAP98 (HSSGHNFVLVRQ) | 2 | 2
97 | pCAP99 (GLHLFTTDRQGW) | 7 | 7
98 | pCAP100 (FPGHTIH) | 19 | 19
99 | pCAP101 (IRFILIR) | 3 | 3
100 | pCAP102 (SSVHHRG) | 3 | 3
101 | pCAP103 (LRRQLQL) | 3 | 3
102 | pCAP104 (LLRLGLI) | 21 | 21
103 | pCAP105 (SRIVLGW) | 5 | 5
104 | pCAP106 (LIRRCSLQR) | 8 | 8
105 | pCAP107 (DRLSVFLFIM) | 0 | 0
106 | pCAP108 (IIRGNFLIGGRL) | 17 | 17
107 | pCAP109 (GPIKHHLQHH) | 4 | 4
108 | pCAP110 (LFILVFR) | 2 | 2
